In patent US8557823B2, “Family of PFKFB3 inhibitors with anti-neoplastic activities” (Advanced Cancer Therapeutics, LLC, priority 2007, dated 2013):
Converted amounts (≈) assume the structure as drawn.

Legend:
Jurkat = experiment: Cancer cell proliferation, Alamar Blue assay 72 hours, Jurkat; type: cell-based; details: Homo sapiens, Jurkat, 72 h
Experimental: (§1) The ability of the compounds described herein to kill or inhibit the proliferation of cancer cells was measured using either the MTT assay, the Alamar Blue assay, or the Cell Titer Glow® assay using 48 or 72 hours exposure. […] The procedures are briefly described below. Cells of the desired tumor cell line were plated at 2×10^5 cells/ml in 96 well plates. Twice the indicated concentrations of the compounds of the invention were added to cells the following day in an equal volume of media. 72 hours later, cells were lysed and subjected to ATP determination using the CellTiter Glo-Luminescent Cell Viability Assay kit (Promega, Madison, Wis.). Experiments were done in triplicate. When using the MTT assay or the Alamar blue assay, the experimental conditions are essentially similar; at the end of the incubation period, 20 microl of the MTT solution is added per well and the samples are incubated for an additional four hours, rinsed and the absorbance at 570 nm measured. Results for the inhibition of cells proliferation are reported as IC50 as commonly done (the concentration leading to a 50% inhibition of proliferation of the cell population) and are listed in the Tables below. Table 4 lists the IC50 for the compounds of the invention in several cell lines including Jurkat, Calu-6, NCI-H82, U937, or NCI-H1437 cancer cell lines. Table 5 lists the IC50 of PFK-070 in a panel of 10 cell lines.

U937 = experiment: Cancer cell proliferation, Alamar Blue assay 72 hours, U937; type: cell-based; details: Homo sapiens, U-937
Experimental: as §1

NCI-H82 = experiment: Cancer cell proliferation, Alamar Blue assay 72 hours, NCI-H82; type: cell-based; details: Homo sapiens
Experimental: as §1

Calu-6 = experiment: Cancer cell proliferation, Alamar Blue assay 72 hours, Calu-6; type: cell-based; details: Homo sapiens
Experimental: as §1

Jurkat cells = experiment: Inhibition of 2-deoxyglucose uptake, Example 14; type: cell-based; details: Homo sapiens, 3 hours
Experimental: Inhibition of PFKFB3 results in inhibiting glycolysis. Several feedback or feedforward activation and inhibition mechanisms exist so that, by a feedback mechanism, inhibiting the activity of PFKFB3 might inhibit glucose uptake by cells. An assay was developed to determine if there was inhibition of glucose uptake following exposure to the compounds on the invention. Briefly, Jurkat cells were plated at 1×10^5/mL in RPMI 1640 supplemented with 10% fetal bovine serum and 50 μg/mL gentamicin sulfate. Cells were immediately treated with vehicle or 0.5 μmol/L of the compound of the invention for 3 hours and subsequently placed in glucose-free RPMI 1640 for 30 min. ^14C-2-deoxyglucose (0.25 μCi/mL; Perkin Elmer) was added for an additional 60 min and cells were then washed three times with ice-cold RPMI 1640 containing no glucose. Cell lysates were collected in 500 μL of 0.1% SDS, and scintillation counts (counts/min) were measured on 400 μL of lysate. Counts were normalized to protein concentration.

NCI-H1437 = experiment: Cancer cell proliferation, Alamar Blue assay 72 hours, NCI-H1437; type: cell-based; details: Homo sapiens
Experimental: as §1

H22 = experiment: MTT assay 48 hours, H22; type: cell-based; details: Mus musculus
Experimental: as §1

CT26 = experiment: MTT assay 48 hours, CT26; type: cell-based, murine; details: Mus musculus
Experimental: as §1

U87MG = experiment: MTT assay 48 hours, U87MG; type: cell-based; details: Homo sapiens, U-87 MG
Experimental: as §1

SK-N-SH = experiment: MTT assay 48 hours, SK-N-SH; type: cell-based; details: Homo sapiens
Experimental: as §1

LnCap = experiment: MTT assay 48 hours, LnCap; type: cell-based; details: Homo sapiens
Experimental: as §1

A549 = experiment: MTT assay 48 hours, A549; type: cell-based; details: Homo sapiens
Experimental: as §1

MiaPaca = experiment: MTT assay 48 hours, MiaPaca; type: cell-based; details: Homo sapiens, MIA PaCa-2
Experimental: as §1

BX-PC-3 = experiment: MTT assay 48 hours, BX-PC-3; type: cell-based; details: Homo sapiens, BXPC-3, BX-PC-3, MTT assay
Experimental: as §1

BT474 = experiment: MTT assay 48 hours, BT474; type: cell-based; details: Homo sapiens, BT-474
Experimental: as §1

SK-BR-3 = experiment: MTT assay 48 hours, SK-BR-3; type: cell-based; details: Homo sapiens, SK-BR-3, MTT assay
Experimental: as §1

[1] = Microsomal stability in human liver microsomes; type: in vitro ADME; details: 0 min
Experimental: Microsomal stability in vitro in different biologic media (liver microsomes, S9 fraction, hepatocytes) and species is ascertained to evaluate the rate at which a compound undergoes metabolism in the experimental in vitro conditions. […] Experimental conditions are briefly described here: the stability in human liver microsomes of several compounds was done over […] at 37° C. using pooled mixed gender human liver microsomes. These liver microsomes were prepared at 1.0 mg/ml of microsomal protein in a 100 mM potassium phosphate pH 7.4 buffer with 1 mM NADPH. The media was incubated at 37° C. with the compound in solution in DMSO. The concentration of the compound was followed by LC/MS-MS as a function of time. […] Testosterone was used as a positive control. The same experiment was performed with mouse, rat or dog liver microsomes instead of human liver microsomes.

[2] = Solubility in dosing solution Cre:EtOH:Saline; type: physicochemical; details: Cremophor:EtOH:Saline 5:5:90, aqueous with cosolvent or surfactant or cyclodextrin, kinetic from dmso stock; 5:5:90 Cremophor:EtOH:Saline, after 24 hours at room temperature
Source text: Chemical properties of the compounds of the invention were investigated, mainly the solubility in several solvents and pharmaceutically accepted excipients or dosing solutions and the stability of these solutions. […] The increase in solubility when comparing the effect of chemical substituents is unpredictable and surprising if one compares the solubility values of PFK-070 to PFK-091 and PFK-070 to PFK-141 and 145 in a dosing solution that could be used to treat cancer patients (See Table 8A below). Briefly, selected compounds of the invention are dissolved in a small volume of the solvents/excipients of interest (Cremophor, or Cremophor:etoh or Tween80:etoh) at room temperature and diluted 1:9 in saline and left at room temperature for over 8 or 24 hours. Both the physical (absence of a precipitate) and the chemical stability (less than 5% degradation) of the solutions are measured (observation and HPLC after filtration).

K562 leukemia cells = experiment: In vitro growth inhibition, K562; type: cell-based, human; details: 1, 3, 10, 33 μM
Experimental: (§2) The K562, HL-60, MDA-MB231, and melanoma (CRL-11174) human cancer cell lines were purchased from ATCC (American Tissue Type Culture Collection, Manassas, Va., United States of America). HeLa, A549, Lewis Lung Carcinoma, MDA-MB231, and melanoma cells were grown in Dulbecco's Modified Eagle Medium (DMEM) (Hyclone, Logan, Utah, United States of America) supplemented with 10% fetal bovine serum (Hyclone, Logan, Utah, United States of America) and 50 μg/mL gentamicin sulfate (Invitrogen, Carlsbad, Calif., United States of America). The HL-60, K562, and Jurkat cell lines were grown in RPMI-1640 medium (Hyclone, Logan, Utah, United States of America) supplemented with 10% fetal bovine serum and 50 μg/mL gentamicin sulfate. […]
(§3) Cells were collected 48 hours post-treatment, and cell number and viability were determined by trypan blue exclusion. […]

HL-60 leukemia cells = experiment: In vitro growth inhibition, HL-60; type: cell-based, human; details: 1, 3, 10, 33 μM
Experimental: as §2, §3

PFKFB3 = PFKFB3 (Homo sapiens, UniProt Q16875); experiment: PFKFB3 enzyme-coupled kinetics assay (pyruvate kinase/lactate dehydrogenase, NADH consumption); details: 150 μM
Chain of PFKFB3 (Q16875 whole entry): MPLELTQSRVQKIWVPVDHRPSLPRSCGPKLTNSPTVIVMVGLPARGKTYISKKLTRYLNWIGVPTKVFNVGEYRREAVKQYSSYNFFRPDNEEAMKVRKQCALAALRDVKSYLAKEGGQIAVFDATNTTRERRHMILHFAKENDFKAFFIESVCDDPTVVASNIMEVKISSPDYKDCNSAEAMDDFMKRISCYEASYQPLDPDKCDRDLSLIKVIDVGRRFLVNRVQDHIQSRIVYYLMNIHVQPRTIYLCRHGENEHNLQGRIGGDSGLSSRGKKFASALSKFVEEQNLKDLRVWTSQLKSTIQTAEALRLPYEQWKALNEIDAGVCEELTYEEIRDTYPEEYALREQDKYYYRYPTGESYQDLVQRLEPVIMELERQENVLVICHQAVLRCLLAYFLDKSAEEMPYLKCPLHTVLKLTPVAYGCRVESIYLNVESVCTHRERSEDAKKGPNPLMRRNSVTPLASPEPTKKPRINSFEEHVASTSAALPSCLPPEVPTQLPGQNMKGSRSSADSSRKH
Experimental: PFKFB3 activity was measured by an enzyme-coupled kinetics assay incorporating pyruvate kinase and lactate dehydrogenase as previously described. […] The assay measures NADH consumption spectrophotometrically as a loss of absorption at 340 nm with stoichiometry of 1 mol ATP: 1 mol NADH consumed. Assays were carried out in 96 well plates at 37° in 200 μL final volume containing 1XPFKFB3 reaction buffer (100 mM Tris-HCl, 100 μM EDTA, 5 mM KH2PO4; pH=7.4), 420 μM phophoenolpyruvate (PEP), 5 mM ATP, 400 μM NADH, 613 units of pyruvate kinase (PK), 1092 units of lactate dehydrogenase (LDH), increasing concentrations of fructose-6-phosphate (40-400 μM), and 15 μg of purified PFKFB3. […] Assays were measured using a BioTek POWERWAVE™ plate reader (BioTek Instruments, Inc., Winooski, Vt., United States of America) in kinetics mode over 15 minute periods to determine kinetic rate of PFKFB3. The enzyme kinetics module for SigmaPlot® 9.0 (SYSTAT Software, Inc., San Jose, Calif., United States of America) was used to calculate the kinetic parameters for PFKFB3 and 1 inhibition (Vmax, Km, and Ki). The Vmax is expressed in specific activity of PFKFB3 as nmol F6P×min^−1×mg^−1. […] The data represented are the mean±STD from triplicate measurements from two independent experiments.

glycolysis = details: cited from earlier work

Compound | IC50 (Jurkat) [µM] | IC50 (U937) [µM] | IC50 (NCI-H82) [µM] | IC50 (Calu-6) [µM] | inhibition at 0.5 µM (Jurkat cells) [%] | IC50 (NCI-H1437) [µM] | Mean metabolized (%) [1] [%] | solubility at 24 h [2] [µg/mL] | further results
O=C(/C=C/c1ccc2ccccc2n1)c1ccccc1 [ACT-PFK-076, 1-Phenyl-3-quinolin-2-yl-propenone] | 6.4 | 2.5 | 4 | 3.3 | 27 | – | – | – | –
O=C(/C=C/c1ccc2ccccc2n1)c1ccccn1 [ACT-PFK-085, 1-Pyridin-2-yl-3-quinolin-2-yl-propenone] | 4.9 | 2.9 | 2.7 | 6.9 | 31 | – | – | – | –
O=C(/C=C/c1ccc2cccc(O)c2n1)c1ccncc1 [ACT-PFK-070, 3-(8-Hydroxy-quinolin-2-yl)-1-pyridin-4-yl-propenone] | 1.3 | 3.6 | 4 | 7.4 | 45 | 29.3 | 0 | 100 (≈ 362 µM) | IC50 (H22): 3.95 µM; IC50 (CT26): 2.06 µM; IC50 (U87MG): 1.68 µM; IC50 (SK-N-SH): 1.46 µM; IC50 (LnCap): 1.28 µM; IC50 (A549): 2.69 µM; IC50 (MiaPaca): 0.275 µM; IC50 (BX-PC-3): 1.18 µM; IC50 (BT474): 0.952 µM; IC50 (SK-BR-3): 1.6 µM
O=C(/C=C/c1ccc(Cl)cc1)c1cccnc1 [Compound 2, 3-(4-chlorophenyl)-1-(3-pyridinyl)-2-propen-1-one] | – | – | – | – | – | – | – | – | cellular toxicity (K562 leukemia cells): dose-dependent cellular toxicity; cellular toxicity (HL-60 leukemia cells): dose-dependent cellular toxicity; kinetic rate of PFKFB3 reduced compared to vehicle (EtOH) (PFKFB3): 39.8%; kinetic rate of recombinant PFKFB3 as % of that with vehicle (EtOH) (PFKFB3): 39.8%
NC(=O)c1ccc(C(=O)/C=C/c2ccc3ccccc3n2)cc1 [ACT-PFK-091, 4-(3-Quinolin-2-yl-acryloyl)-benzamide] | 0.6 | 0.4 | 0.7 | 0.2 | 11 | 4.2 | 0 | 200 (≈ 662 µM) | –
O=CC[C@@H](O)[C@H](O)[C@H](O)CO [Compound 2-DG, 2-deoxyglucose] | – | – | – | – | – | – | – | – | effective concentration of other inhibitors of glycolysis (glycolysis): low mM
